Source: article PMC9721426, “Novel piperine-carboximidamide hybrids: design, synthesis, and antiproliferative activity via a multi-targeted inhibitory pathway” (Journal of Enzyme Inhibition and Medicinal Chemistry, 2022)

Assays:
[1] = tested on: A-549 (epithelial cancer cell line); experiment: Antiproliferative MTT assay, A-549; type: cell-based; conditions: Homo sapiens, A549; A-549, MTT; read-out: Antiproliferative activity IC50 ± SEM, A-549
Protocol: (§1) The MTT assay was performed using various cell lines in accordance with previously reported procedures[28]^,[29] to investigate the antiproliferative potential of VIa-k. Refer to Appendix A. […]
(§2) added (in 200 μL medium to yield a final concentration of 0.1% v/v) to the wells of plates. A single compound was designated with four wells followed by incubation of […]
(§3) After incubation, medium was removed completely from the plates followed by addition of MTT (0.4 mg/mL in medium) to each well and subsequent incubation of plates for 3h. MTT (along with the medium) was removed and DMSO (150μL) was added to each well of the culture plates, followed by vortexing and subsequent measurement of absorbance (at 540 nm) using microplate reader. The data are shown as percentage inhibition of proliferation in comparison with controls containing 4.2.1.2. Assay for antiproliferative effect […]
(§4) The percentage cytotoxicity of compounds was calculated using the following […]
(§5) Where ATC= Absorbance of treated cells and AC= Absorbance of control. […]
(§6) used as positive control in the assay. […]

BRAF^V600E = target: T1, BRAF^V600E (Mus musculus, UniProt P28028, V585E); experiment: BRAF V600E kinase assay; type: biochemical; conditions: read-out: BRAF^V600E inhibition IC50 ± SEM
T1 construct: Mouse full-length GST-tagged BRAFV600E; GST; purchased Invitrogen PV3849
T1 sequence (P28028 whole entry V585E): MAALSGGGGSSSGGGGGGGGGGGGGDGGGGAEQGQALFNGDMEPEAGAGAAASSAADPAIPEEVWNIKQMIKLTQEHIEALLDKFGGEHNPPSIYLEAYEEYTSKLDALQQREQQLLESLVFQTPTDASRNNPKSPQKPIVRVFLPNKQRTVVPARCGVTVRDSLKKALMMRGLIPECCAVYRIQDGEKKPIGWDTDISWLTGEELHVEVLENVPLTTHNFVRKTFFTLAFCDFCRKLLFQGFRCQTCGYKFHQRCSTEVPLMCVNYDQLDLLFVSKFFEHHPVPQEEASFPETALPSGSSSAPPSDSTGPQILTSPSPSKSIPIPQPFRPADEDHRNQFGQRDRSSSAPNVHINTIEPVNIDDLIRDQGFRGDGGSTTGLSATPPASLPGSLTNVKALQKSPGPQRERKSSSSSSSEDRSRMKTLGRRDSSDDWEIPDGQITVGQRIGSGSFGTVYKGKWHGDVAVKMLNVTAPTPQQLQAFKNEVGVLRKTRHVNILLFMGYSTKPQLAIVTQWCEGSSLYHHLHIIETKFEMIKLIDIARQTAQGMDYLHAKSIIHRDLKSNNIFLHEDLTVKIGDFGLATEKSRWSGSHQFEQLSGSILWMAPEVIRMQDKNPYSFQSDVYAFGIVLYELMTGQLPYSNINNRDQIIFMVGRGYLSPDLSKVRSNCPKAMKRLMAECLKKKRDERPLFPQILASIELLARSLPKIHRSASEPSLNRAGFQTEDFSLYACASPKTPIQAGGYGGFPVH
Protocol: An in vitro study was conducted to evaluate the anti-BRAF^V600E of VIc, VIf, VIg, VIi, and VIk[31]. […] An in vitro study[31] was conducted to evaluate the anti-BRAF^V600E of VIc, VIf, VIg, VIi, and Vik. See Appendix A.
4.2.1.4. BRAF kinase assay
V600E mutant BRAF kinase assay was performed to investigate the activity of the most […]
Mouse full-length GST-tagged BRAFV600E (7.5 ng, Invitrogen, PV3849) was pre-incubated with drug (1 µL) and assay dilution buffer (4 µL) for 60 min at 25 °C. In assay dilution buffer, a solution (5 µL) containing MgCl 2 (30 mM), ATP (200 µM), recombinant human full length (200 ng) […] N-terminal His-tagged MEK1 (Invitrogen) was added to start the assay, subsequent to incubation for 25 min at 25 °C. The assay was stopped using 5X protein denaturing buffer (LDS) solution (5 µL).
To further denature the protein, heat (70° C) was applied for 5 min.
NuPage gel plates (Invitrogen) were used to carry out electrophoresis (at 200 V). 10 µL of each reaction was loaded into the precast plates and electrophoresis was allowed to proceed. After completion of electrophoresis, the front part of the precast gel plate (holding hot ATP) was cut and afterw ards cast-off. The dried gel was developed using a […]
that containing no inhibitor served as positive control. […]

[2] = tested on: MCF-7 (breast cancer cell line); experiment: Antiproliferative MTT assay, MCF-7; type: cell-based; conditions: Homo sapiens, MCF7; MCF-7, MTT; read-out: Antiproliferative activity IC50 ± SEM, MCF-7
Protocol: as §1, §2, §3, §4, §5, §6

[3] = tested on: LOX-IMVI melanoma cell line; experiment: LOX-IMVI melanoma cell line MTT cytotoxicity assay; type: cell-based; conditions: Homo sapiens, 5-dose concentrations, read-out: LOX-IMVI melanoma IC50 ± SEM
Protocol: The MTT cytotoxicity assay was used to assess the anticancer activity of VIc, VIf, and VIk on the LOX-IMVI melanoma cell line, which comprises BRAF^V600E kinase overexpression. The compounds were evaluated at 5-dose concentrations to ascertain their IC50 values, with staurosporine acting as a control.
The MTT cytotoxicity assay was used to assess the anticancer activity of VIc, VIf, and VIk on the LOX-IMVI melanoma cell line, which comprises BRAF^V600E kinase overexpression. Refer to Appendix A.

melting point | IC50 [1] | IC50 (BRAF^V600E) | IC50 [2] | Compound | IC50 [3]
159 to 161 °C | 45 ± 5 nM | 57 ± 6 nM | 47 ± 5 nM | NC(=NOC(=O)/C=C/C=C/c1ccc2c(c1)OCO2)c1ccc(Br)cc1 [VIc, N'-{[(2E,4E)-5-(2H-1,3-Benzodioxol-5-yl)penta-2,4-dienoyl]oxy}-4-bromobenzene-1-carboximidamide] | 1400 ± 20 nM
 | 32 ± 3 nM | 40 ± 4 nM | 35 ± 3 nM | N/C(=N/OC(=O)/C=C/C=C/c1ccc2c(c1)OCO2)c1ccc2c(c1)OCO2 [VIk] | 1050 ± 10 nM
165 to 167 °C | 41 ± 4 nM | 49 ± 5 nM | 43 ± 4 nM | NC(=NOC(=O)/C=C/C=C/c1ccc2c(c1)OCO2)c1ccccc1Cl [VIf, N'-{[(2E,4E)-5-(2H-1,3-benzodioxol-5-yl)penta-2,4-dienoyl]oxy}-2-chlorobenzene-1-carboximidamide] | 1100 ± 10 nM
